IC50 and inhibition data for eleven molecules are collected here from article PMC5923399 (Marine Drugs, 2018).

Where a SMILES comes first, the peptide text is derived from it. Bridges are numbered along the chain shown (N, C = ends).

Usually IC50 stands for the concentration needed to halve the response being measured. As usually defined, the inhibition is the change of the read-out against control, counted positive when it falls.

One experiment deals with α3β2 nAChR. Particulars: cited from earlier work.
The target in a further experiment is T1, α9α10 nAChR (Rattus norvegicus, UniProt P43144+Q9JLB5).
T1 construct: expressed in transfected cells; host or cells: Xenopus oocytes (cRNA injection)
Particulars: read-out: IC50 α9α10; cited from earlier work.

The subject of the next experiment is hα3β4 nAChR. Particulars: cited from earlier work.
A further experiment concerns hα4β2 nAChR. Particulars: cited from earlier work.
In the next experiment the test system is hα3β2 nAChR. Particulars: cited from earlier work.
In the next experiment the target is T2, rat α3β2 nAChRs (Rattus norvegicus, UniProt P04757+P12390).
T2 construct: expressed in transfected cells; host or cells: Xenopus oocytes (cRNA injection)
Description: cell-based.

The next experiment addresses T3, α7 nAChR (Rattus norvegicus, UniProt Q05941).
T3 construct: expressed in transfected cells; host or cells: Xenopus oocytes (cRNA injection)
Particulars: cited from earlier work.

For another experiment, the target named is T4, α4β2 nAChR (Rattus norvegicus, UniProt P09483+P12390).
T4 construct: expressed in transfected cells; host or cells: Xenopus oocytes (cRNA injection)
Particulars: cited from earlier work.

For another experiment, the target named is T5, GABABR-coupled Cav2.2 (Homo sapiens, UniProt O75899+Q9UBS5).
T5 construct: expressed in transfected cells; host or cells: HEK293T cells, transient transfection; GABAB subunit plasmids from David J. Adams, University of Wollongong
The experiment can be described thus: cell-based. The arrangement: species or system human GABABR and rat Cav2.2.

T2 sequence (P04757 26-499 limits assumed): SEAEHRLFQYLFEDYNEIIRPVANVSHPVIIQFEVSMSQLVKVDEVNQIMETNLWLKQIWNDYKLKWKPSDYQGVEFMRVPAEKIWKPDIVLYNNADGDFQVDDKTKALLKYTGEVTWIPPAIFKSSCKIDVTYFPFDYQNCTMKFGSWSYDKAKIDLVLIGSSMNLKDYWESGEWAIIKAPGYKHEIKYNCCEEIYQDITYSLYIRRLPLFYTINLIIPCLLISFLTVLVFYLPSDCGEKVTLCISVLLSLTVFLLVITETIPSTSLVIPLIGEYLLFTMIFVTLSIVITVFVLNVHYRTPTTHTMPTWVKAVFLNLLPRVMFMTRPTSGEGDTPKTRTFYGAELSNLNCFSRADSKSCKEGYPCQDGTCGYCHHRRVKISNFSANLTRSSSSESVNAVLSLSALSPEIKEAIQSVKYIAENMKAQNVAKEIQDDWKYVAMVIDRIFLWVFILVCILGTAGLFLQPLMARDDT
T2 sequence (P12390 25-500 limits assumed): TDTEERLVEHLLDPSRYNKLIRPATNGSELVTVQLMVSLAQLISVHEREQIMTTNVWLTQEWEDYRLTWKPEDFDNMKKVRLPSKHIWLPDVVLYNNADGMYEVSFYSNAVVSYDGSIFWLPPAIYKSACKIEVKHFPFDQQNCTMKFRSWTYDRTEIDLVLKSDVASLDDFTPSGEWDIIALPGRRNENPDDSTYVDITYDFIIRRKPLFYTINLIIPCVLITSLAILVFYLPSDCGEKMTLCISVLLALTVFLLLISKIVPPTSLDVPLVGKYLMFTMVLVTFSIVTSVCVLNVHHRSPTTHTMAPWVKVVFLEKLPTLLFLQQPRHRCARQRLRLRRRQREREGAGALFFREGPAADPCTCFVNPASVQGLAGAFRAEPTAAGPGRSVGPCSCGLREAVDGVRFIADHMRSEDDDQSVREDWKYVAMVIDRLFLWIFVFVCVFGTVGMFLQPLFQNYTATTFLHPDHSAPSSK
T5 sequence (Q9UBS5 15-961 limits assumed): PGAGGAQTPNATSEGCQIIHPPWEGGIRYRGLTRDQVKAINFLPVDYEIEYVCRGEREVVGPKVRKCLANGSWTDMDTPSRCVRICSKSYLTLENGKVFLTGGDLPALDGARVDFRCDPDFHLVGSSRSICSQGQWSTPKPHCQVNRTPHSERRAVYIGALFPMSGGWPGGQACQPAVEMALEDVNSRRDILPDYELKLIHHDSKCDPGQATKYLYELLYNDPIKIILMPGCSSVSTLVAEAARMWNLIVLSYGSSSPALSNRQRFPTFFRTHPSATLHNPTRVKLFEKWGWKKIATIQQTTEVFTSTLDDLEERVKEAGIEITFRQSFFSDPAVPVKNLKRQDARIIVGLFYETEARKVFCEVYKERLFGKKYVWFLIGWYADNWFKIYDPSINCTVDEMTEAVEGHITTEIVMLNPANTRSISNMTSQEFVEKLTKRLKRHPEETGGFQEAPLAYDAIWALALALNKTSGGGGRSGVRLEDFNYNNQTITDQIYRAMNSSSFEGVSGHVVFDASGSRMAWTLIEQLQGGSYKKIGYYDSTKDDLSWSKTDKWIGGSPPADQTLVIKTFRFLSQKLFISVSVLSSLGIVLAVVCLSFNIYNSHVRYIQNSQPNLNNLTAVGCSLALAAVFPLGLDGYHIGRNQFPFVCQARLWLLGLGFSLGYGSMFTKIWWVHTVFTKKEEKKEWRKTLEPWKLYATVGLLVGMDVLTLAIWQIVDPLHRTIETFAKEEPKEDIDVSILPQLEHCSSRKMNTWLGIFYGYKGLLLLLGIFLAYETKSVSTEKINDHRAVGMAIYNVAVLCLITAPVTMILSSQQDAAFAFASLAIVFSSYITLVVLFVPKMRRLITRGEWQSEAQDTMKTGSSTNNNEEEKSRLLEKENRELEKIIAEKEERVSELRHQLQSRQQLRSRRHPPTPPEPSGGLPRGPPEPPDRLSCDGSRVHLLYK
T5 sequence (O75899 42-941): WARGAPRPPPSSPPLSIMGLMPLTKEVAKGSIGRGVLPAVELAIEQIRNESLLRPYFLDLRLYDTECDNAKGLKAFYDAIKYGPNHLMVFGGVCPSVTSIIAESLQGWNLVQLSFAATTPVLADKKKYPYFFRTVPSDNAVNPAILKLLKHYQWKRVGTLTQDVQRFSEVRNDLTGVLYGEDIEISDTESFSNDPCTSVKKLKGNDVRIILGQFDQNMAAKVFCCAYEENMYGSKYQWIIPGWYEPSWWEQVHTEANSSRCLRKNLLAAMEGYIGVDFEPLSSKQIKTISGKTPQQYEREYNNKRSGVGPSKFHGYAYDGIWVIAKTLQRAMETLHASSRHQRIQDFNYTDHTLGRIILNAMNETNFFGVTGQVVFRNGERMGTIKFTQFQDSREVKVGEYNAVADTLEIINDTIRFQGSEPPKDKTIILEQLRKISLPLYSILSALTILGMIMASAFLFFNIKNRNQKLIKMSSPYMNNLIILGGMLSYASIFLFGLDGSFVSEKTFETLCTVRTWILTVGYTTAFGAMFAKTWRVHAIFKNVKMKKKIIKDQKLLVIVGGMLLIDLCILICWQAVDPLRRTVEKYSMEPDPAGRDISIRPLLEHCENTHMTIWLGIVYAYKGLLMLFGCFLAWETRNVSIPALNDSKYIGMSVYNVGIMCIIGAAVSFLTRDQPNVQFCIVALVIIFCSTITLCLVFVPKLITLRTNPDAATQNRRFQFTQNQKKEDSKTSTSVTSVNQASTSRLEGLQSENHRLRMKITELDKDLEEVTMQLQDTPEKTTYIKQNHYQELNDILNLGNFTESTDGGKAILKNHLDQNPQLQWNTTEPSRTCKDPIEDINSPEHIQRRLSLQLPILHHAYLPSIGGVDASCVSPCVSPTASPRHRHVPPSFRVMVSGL
T1 sequence (P43144 26-479 limits assumed): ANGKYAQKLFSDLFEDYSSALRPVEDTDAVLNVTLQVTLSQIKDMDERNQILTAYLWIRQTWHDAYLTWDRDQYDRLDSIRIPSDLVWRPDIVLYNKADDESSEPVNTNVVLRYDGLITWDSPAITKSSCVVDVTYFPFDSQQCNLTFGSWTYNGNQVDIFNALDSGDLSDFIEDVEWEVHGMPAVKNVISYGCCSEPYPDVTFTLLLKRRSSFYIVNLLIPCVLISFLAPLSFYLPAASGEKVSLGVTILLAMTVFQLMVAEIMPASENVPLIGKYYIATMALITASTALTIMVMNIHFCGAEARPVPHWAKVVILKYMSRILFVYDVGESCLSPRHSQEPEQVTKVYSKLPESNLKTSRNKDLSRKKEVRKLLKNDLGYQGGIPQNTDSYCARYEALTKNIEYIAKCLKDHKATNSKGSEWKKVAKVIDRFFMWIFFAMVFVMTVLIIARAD
T1 sequence (Q9JLB5 25-447 limits assumed): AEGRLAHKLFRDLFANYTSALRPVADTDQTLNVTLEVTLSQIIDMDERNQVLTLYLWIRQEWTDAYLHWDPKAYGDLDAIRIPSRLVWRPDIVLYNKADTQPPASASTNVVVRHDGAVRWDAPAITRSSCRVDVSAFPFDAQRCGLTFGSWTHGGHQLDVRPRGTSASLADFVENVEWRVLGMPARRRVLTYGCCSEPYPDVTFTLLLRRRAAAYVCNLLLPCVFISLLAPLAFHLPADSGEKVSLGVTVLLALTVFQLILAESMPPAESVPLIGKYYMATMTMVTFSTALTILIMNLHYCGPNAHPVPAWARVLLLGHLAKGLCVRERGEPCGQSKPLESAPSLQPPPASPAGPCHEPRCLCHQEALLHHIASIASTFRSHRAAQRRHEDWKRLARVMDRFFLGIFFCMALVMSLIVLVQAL

Consider “PE CC THPA C HVSHPEL C * (bicyclic or more) [Mr1.7, α4/7-CTx targeting nAChR α3β2]”, for which the results for the IC50 in the experiment with α3β2 nAChR and on α9α10 nAChR were 53.1 nM and 188 nM, respectively.

For “GG CC SHPA C AANNQD(sTy) C * (bicyclic or more) [AnIB, α4/7-CTx targeting nAChR α3β2]”, the IC50 in the experiment on α3β2 nAChR was 0.3 nM.

Take “IRDE CC SNPA C RVNNOHV C RRR (bicyclic or more) [ArIA, α4/7-CTx targeting nAChR α3β2]”: the 50% inhibitory concentration (IC50) with α3β2 nAChR is 18 nM.

For “G CC SHPA C AGNNQHI C * (bicyclic or more) [GIC, α4/7-CTx targeting nAChR α3β2]”, the IC50 in the experiment with hα3β4 nAChR was 755 nM; in the experiment on hα4β2 nAChR it was 309 nM; in the experiment with hα3β2 nAChR, 1.1 nM.

For the molecule `C[C@@H]1NC(=O)[C@@H]2CSSC[C@H](NC(=O)CN)C(=O)N[C@@H](CSSC[C@@H](C(N)=O)NC(=O)[C@H](Cc3ccccc3)NC(=O)[C@H](Cc3ccc(O)cc3)NC(=O)[C@@H]3CCCN3C(=O)[C@H](CC(N)=O)NC(=O)[C@H](CC(N)=O)NC(=O)CNC1=O)C(=O)N[C@@H](CO)C(=O)N[C@@H](Cc1c[nH]cn1)C(=O)N1CCC[C@H]1C(=O)N[C@@H](C)C(=O)N2` [Lt1.3[S9A]], the IC50 against rat α3β2 nAChRs was determined as 35.4 nM.

Turning to “G CC SNPV C HLEHSNL C * (bicyclic or more) (GCCSNPVCHLEHSNLC) [MII, α4/7-CTx targeting nAChR α3β2]”, the IC50 was ~200 nM with α7 nAChR and 548 nM with α4β2 nAChR.

For the molecule “SG CC SNPA C RVNNPNI C * (bicyclic or more) (SGCCSNPACRVNNPNIC) [LsIA, α4/7-CTx targeting nAChR α3β2]”, in the experiment with α7 nAChR, the IC50 was 10.1 nM.

Turning to `C[C@@H]1NC(=O)[C@@H]2CCCN2C(=O)[C@H](Cc2c[nH]cn2)NC(=O)[C@H](CO)NC(=O)[C@@H]2CSSC[C@H](NC1=O)C(=O)N[C@@H](CO)C(=O)NCC(=O)N[C@@H](CC(N)=O)C(=O)N[C@@H](CC(N)=O)C(=O)N1CCC[C@H]1C(=O)N[C@@H](Cc1ccc(O)cc1)C(=O)N[C@@H](Cc1ccccc1)C(=O)N[C@H](C(N)=O)CSSC[C@H](NC(=O)CN)C(=O)N2` [Lt1.3-I] (H-GCCSHPACSGNNPYFC-NH2; disulfide 2-16, 3-8), the IC50 on GABABR-coupled Cav2.2 was 33.9 nM; against rat α3β2 nAChRs, > 10000 nM. For the same molecule, at GABABR-coupled Cav2.2 (HEK-293T, read-out: inhibition of peak current amplitude, SEM), the inhibition at 0.1 µM was determined as 28 ± 3.8%.

With “G CC SNPV C HLEHSNL C * (bicyclic or more) [MII, α4/7-CTx targeting nAChR α3β2]”, in the experiment with α3β2 nAChR, the IC50 is 0.5 nM.

As for “SG CC SNPA C RVNNPNI C * (bicyclic or more) [LsIA, α4/7-CTx targeting nAChR α3β2]”, the concentration for half-maximal inhibition (IC50) in the experiment on α3β2 nAChR was 10.3 nM.

Take `C[C@@H]1NC(=O)CNC(=O)[C@H](CO)NC(=O)[C@@H]2CSSC[C@H](NC(=O)CN)C(=O)N[C@@H](CSSC[C@@H](C(N)=O)NC(=O)[C@H](Cc3ccccc3)NC(=O)[C@H](Cc3ccc(O)cc3)NC(=O)[C@@H]3CCCN3C(=O)[C@H](CC(N)=O)NC1=O)C(=O)N[C@@H](CO)C(=O)N[C@@H](Cc1c[nH]cn1)C(=O)N1CCC[C@H]1C(=O)N[C@@H](C)C(=O)N2` [Lt1.3[N11A]] (H-GCCSHPACSGANPYFC-NH2; disulfide 2-8, 3-16; N-terminus assumed): at rat α3β2 nAChRs, the IC50 is > 10000 nM.
